Test results from patent US20050009837A1, “Modulators of lipid metabolism and methods of use” (City of Hope, priority 2003, published 2005).

Tests used:
[1] = molecular target: T1, LXRβ-RXR heterodimers / SRC-1 (Homo sapiens, UniProt P55055); experiment: In vitro coactivator recruitment/displacement assay (gel), LXRβ, RXR, GST-SRC-1, 32P-LXRE probe; assay type: biochemical; conditions: 10 μM
T1 construct: made in house; host or cells: receptors translated in vitro
Description: This was tested more directly using an in vitro coactivator recruitment/coactivator displacement assay. This assay has the advantage that it is performed with receptors bound to DNA and that it measures a direct interaction between receptor and coactivator with no interference by other proteins that may indirectly stabilize the complex. The assay was performed by mixing in vitro translated LXRα or LXRβ, RXR, 5 μg of purified GST-SRC-1 and a ^32P-labeled LXRE probe with or without 10 μM Clotrimazole according to previously described methods. Wang et al., Mol. Cell 3:543-553, 1999. The complexes then were separated through 5.5% polyacrylamide gels. The probe used represents a DR-4 element derived from the human SREBP-1c promoter (nt 337-361, accession no. AB046200).

[2] = tested on: SREBP-1c expression; experiment: Real-time PCR of SREBP-1c expression in HepG2 cells; assay type: cell-based, human; conditions: Clotrimazole 10 μM plus T0901317 100 nM, 24 hours
Description: Real time PCR was then performed on cDNA derived from RNA isolated form the treated HepG2 cells as follows. Real time quantitative PCR assays were performed using an Applied Biosystems 7700 sequence detector (Applied Biosystems). Each reaction mixture contained 50 ng cDNA, 1.25 pmol each forward and reverse primer, and […] 2× SYBR Green PCR master mix (Applied Biosystems) in a final volume of 25 μl. The PCR conditions were 50° C. for 2 min, 95° C. for 10 min, and 40 cycles of 95° C. for 15 sec and 60° C. for 1 min. Samples were run in duplicate for each primer pair. Expression of glyceraldehyde-3-phosphate dehydrogenase (GAPDH) was analyzed in parallel as an internal control. Each sample was normalized to GAPDH and is represented in the Figure showing the results as arbitrary units with the expression levels in untreated cells assigned a value of one. The primer sequences are as follows: human SREBP-1c forward [NT] ID NO:1); human SREBP-1c reverse [NT] ID NO:2); human GAPDH forward [NT] ID NO:3) and human GAPDH reverse [NT] ID NO:4).

[3] = molecular target: PPARα (Homo sapiens, UniProt Q07869); experiment: PPARα activity (data not shown); assay type: cell-based
PPARα, sequence (Q07869 whole entry, species assumed): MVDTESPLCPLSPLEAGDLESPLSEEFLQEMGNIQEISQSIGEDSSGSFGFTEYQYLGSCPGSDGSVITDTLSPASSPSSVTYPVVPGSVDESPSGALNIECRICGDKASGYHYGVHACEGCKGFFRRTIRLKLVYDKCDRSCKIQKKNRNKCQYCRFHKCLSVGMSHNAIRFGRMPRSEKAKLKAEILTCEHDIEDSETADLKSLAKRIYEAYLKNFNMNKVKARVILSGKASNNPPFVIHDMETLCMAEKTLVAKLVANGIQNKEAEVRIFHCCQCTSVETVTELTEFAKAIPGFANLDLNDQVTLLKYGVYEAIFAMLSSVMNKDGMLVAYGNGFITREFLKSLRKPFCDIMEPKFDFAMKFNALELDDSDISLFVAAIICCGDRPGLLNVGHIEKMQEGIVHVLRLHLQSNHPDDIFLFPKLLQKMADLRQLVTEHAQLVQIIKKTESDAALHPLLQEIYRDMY

T1 sequence (P55055 whole entry): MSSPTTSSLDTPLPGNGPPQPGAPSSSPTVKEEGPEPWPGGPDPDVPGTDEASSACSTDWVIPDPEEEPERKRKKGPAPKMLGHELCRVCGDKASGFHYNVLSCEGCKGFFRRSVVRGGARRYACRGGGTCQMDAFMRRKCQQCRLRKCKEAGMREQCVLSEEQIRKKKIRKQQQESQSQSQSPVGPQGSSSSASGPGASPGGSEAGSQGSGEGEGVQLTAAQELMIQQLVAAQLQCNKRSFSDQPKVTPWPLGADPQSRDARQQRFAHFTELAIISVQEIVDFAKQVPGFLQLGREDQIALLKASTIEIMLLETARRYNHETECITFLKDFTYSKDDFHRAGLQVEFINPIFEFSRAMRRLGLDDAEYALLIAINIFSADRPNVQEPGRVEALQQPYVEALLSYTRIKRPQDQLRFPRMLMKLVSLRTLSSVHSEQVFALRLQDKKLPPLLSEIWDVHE
T1 sequence (P19793 whole entry partner): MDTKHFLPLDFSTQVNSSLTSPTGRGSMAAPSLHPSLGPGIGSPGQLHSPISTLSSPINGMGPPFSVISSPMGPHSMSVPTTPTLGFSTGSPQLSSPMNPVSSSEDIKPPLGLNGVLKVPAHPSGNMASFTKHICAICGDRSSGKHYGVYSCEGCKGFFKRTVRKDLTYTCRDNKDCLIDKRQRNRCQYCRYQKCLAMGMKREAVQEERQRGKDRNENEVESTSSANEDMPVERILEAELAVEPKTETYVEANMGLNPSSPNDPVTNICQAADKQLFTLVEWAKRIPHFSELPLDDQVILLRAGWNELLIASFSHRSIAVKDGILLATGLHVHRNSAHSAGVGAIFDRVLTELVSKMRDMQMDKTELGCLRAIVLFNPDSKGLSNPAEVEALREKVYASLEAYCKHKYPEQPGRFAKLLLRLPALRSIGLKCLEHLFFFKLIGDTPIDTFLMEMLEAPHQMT

effect on LXRβ-RXR heterodimers (bound to LXRE probe) ([1]; lane 7): no effect
interaction of LXRβ-RXR with SRC-1 ([1]; lane 8): prevented the interaction with SRC-1
effect on PPARα activity [3]: no effect
Compound: Clc1ccccc1C(c1ccccc1)(c1ccccc1)n1ccnc1 [Clotrimazole]
SREBP-1c expression compared to T0901317 alone [2]: significantly reduced
